Data set [1] concerns P9B. Kind of data set: MIC determination (bacteria), strain P9B. Format: cell-based, S. pneumoniae. Particulars: Table 1; 2-fold broth dilution. As to the method:
(§1) MIC determination (bacteria); MICs were determined based on Clinical and Laboratory Standards Institute (CLSI) methodology (Methods for dilution antimicrobial susceptibility tests for bacteria that grow aerobically; Approved Standard—seventh edition. 2006, M7-A7, CLSI, Wayne Pa.) by a 2-fold broth dilution technique in Mueller Hinton (pH7.4 Biorad). For S. pneumoniae, the medium was supplemented with 2.5% laked horse blood. For H. influenzae, the medium was haemophilus test medium (H.T.M.). Overnight cultures were diluted to obtain the final inoculum of 10^5 cfu/well. Incubation was 37° C. overnight in ambient air. The MIC was defined as the lowest concentration which inhibited all visual growth and expressed in μg/ml. For each bacterial species, all of the molecules were tested in the same experiment in order to give a head-to-head comparison.

In data set [2] the test system is H4. Kind of data set: MIC determination (bacteria), strain H4. Format: cell-based, H. influenzae. The following applies: Table 1; haemophilus test medium. As to the method: as §1
For data set [3], the system named is H3. Kind of data set: MIC determination (bacteria), strain H3. Format: cell-based, H. influenzae. Particulars: Table 1; haemophilus test medium. Here is the method: as §1
The subject of data set [4] is human embryonic kidney 293 cells. Description: in vitro toxicities against human embryonic kidney 293 cells. Format: cell-based. The following applies: human embryonic kidney 293 cells. From the text: (§2) These properties can be determined according to techniques that are well known in the art.
For data set [5], the system named is S. aureus membrane. Kind of data set: In vitro activity in depolarization of S. aureus membrane. Format: cell-based. The following applies: read-out: DEP (IC50).
From the text: as §2

Data set [6] has as its system S26. Description: MIC determination (bacteria), strain S26. The following applies: Table 1; 2-fold broth dilution. Format: cell-based, S. aureus. Here is the method:
as §1

Data set [7] relates to E1. Description: MIC determination (bacteria), strain E1. Format: cell-based, enterococcus. Particulars: Table 1; 2-fold broth dilution. Here is the method:
as §1

Data set [8] relates to human peripheral blood cells. Kind of data set: in vitro toxicities human peripheral blood cells. Format: cell-based. The following applies: human peripheral blood cells.
From the text: as §2

The subject of data set [9] is E2. Kind of data set: MIC determination (bacteria), strain E2. Format: cell-based, enterococcus. The following applies: Table 1; 2-fold broth dilution. Here is the method:
as §1

The subject of data set [10] is P9. Kind of data set: MIC determination (bacteria), strain P9. Format: cell-based, S. pneumoniae. The following applies: Table 1; 2-fold broth dilution. Here is the method: as §1
The test system of data set [11] is mammalian_red blood cell membrane. Description: In vitro mammalian red blood cell membrane lysis activity. Format: cell-based. Particulars: Active or inactive at 100 μM.
From the text: as §2

Data set [12] relates to S2 (S. aureus 2, MRSA in vivo). Description: MIC determination (bacteria), strain S2. Format: cell-based. The following applies: Table 1; 2-fold broth dilution. As to the method:
as §1

Data set [13] deals with S4. Kind of data set: MIC determination (bacteria), strain S4. Format: cell-based, S. aureus. The following applies: Table 1; 2-fold broth dilution. As to the method: as §1
The test system of data set [14] is S1. Description: MIC determination (bacteria), strain S1. Format: cell-based, S. aureus. Particulars: Table 1; 2-fold broth dilution. Here is the method:
as §1

Data set [15] concerns P1. Kind of data set: MIC determination (bacteria), strain P1. Format: cell-based, S. pneumoniae. The following applies: Table 1; 2-fold broth dilution. As to the method: as §1
A short description of data set [16]: aqueous solubility at pH 7.4. Format: physicochemical. Particulars: aqueous solubility at pH 7.4 (water with 2% DMSO).
From the text: as §2

Converted amounts (≈) assume the structure as drawn. A value given as a limit tells only on which side of the number the result lay.

Take `CCCCCCCC=CC(=O)N1C(=O)C(=C(C)O)C(=O)C1CC(C)C` (stereo not drawn) [23a]: the “MIC P9B” value in [1] was found to be 4 µg/mL (≈ 11.4 µM). Also, in [2], the “MIC H4” value worked out at 4 µg/mL (≈ 11.4 µM). In addition, the “MIC H3” value in data set [3] was 64 µg/mL (≈ 183 µM). In addition, the “Hek293 (LD50, μM)” value in data set [4] stood at 90.9 µM. Also, in [5], the IC50 amounted to 88 µM. In [6], the “MIC S26” value is 16 µg/mL (≈ 45.8 µM). Also, the “MIC E1” value in [7] was 8 µg/mL (≈ 22.9 µM). Besides, the “PMBC (LD50, μM)” value in [8] amounted to 90.9 µM. Further, the “MIC E2” value in data set [9] came to 4 µg/mL (≈ 11.4 µM). In addition, the “MIC P9” value in [10] was found to be 1 µg/mL (≈ 2.86 µM). Moreover, in data set [11], the “RBC membrane lysis activity (active/inactive)” value is “Inactive^d”. For the same compound, the “MIC S2” value in [12] amounted to 8 µg/mL (≈ 22.9 µM). Moreover, the “MIC S4” value in data set [13] turned out to be 8 µg/mL (≈ 22.9 µM). The “MIC S1” value in [14] was found to be 8 µg/mL (≈ 22.9 µM). The “MIC P1” value in data set [15] was 2 µg/mL (≈ 5.72 µM).

Turning to `CCCCCCCC=CC(=O)N1C(=O)C(=C(O)CCC)C(=O)C1CC(C)C` (stereo not drawn) [23b], the “MIC P9B” value in data set [1] was determined as 1 µg/mL (≈ 2.65 µM). Moreover, in data set [2], the “MIC H4” value amounted to 2 µg/mL (≈ 5.3 µM). Also, in data set [3], the “MIC H3” value is greater than 64 µg/mL. For the same compound, in data set [4], the “Hek293 (LD50, μM)” value worked out at 90.9 µM. Besides, the IC50 in data set [5] was 49.5 µM. Moreover, the “MIC S26” value in data set [6] stood at 0.5 µg/mL (≈ 1.32 µM). For the same compound, in data set [7], the “MIC E1” value is 0.25 µg/mL (≈ 0.662 µM). Also, in [8], the “PMBC (LD50, μM)” value came to 90.9 µM. The “MIC E2” value in data set [9] was less than 0.06 µg/mL. Besides, the “MIC P9” value in data set [10] is 0.12 µg/mL (≈ 0.318 µM). In data set [11], the “RBC membrane lysis activity (active/inactive)” value was “Inactive^d”. Also, the “MIC S2” value in data set [12] turned out to be 0.25 µg/mL (≈ 0.662 µM). In addition, the “MIC S4” value in data set [13] is 0.25 µg/mL (≈ 0.662 µM). In [14], the “MIC S1” value was less than 0.06 µg/mL. Besides, the “MIC P1” value in [15] worked out at 0.25 µg/mL (≈ 0.662 µM).

For the compound `CCCCCCCC=CC(=O)N1C(=O)C(=C(O)CCCCC)C(=O)C1CC(C)C` (stereo not drawn) [23c], the “MIC P9B” value in data set [1] was 2 µg/mL (≈ 4.93 µM). For the same compound, in data set [3], the “MIC H3” value is greater than 64 µg/mL. Further, the “Hek293 (LD50, μM)” value in data set [4] came to 30.3 µM. Besides, the IC50 in [5] was 19.6 µM. Moreover, the “MIC S26” value in [6] came to 0.5 µg/mL (≈ 1.23 µM). Further, the “MIC E1” value in data set [7] amounted to 0.25 µg/mL (≈ 0.616 µM). In [8], the “PMBC (LD50, μM)” value is 30.3 µM. For the same compound, the “MIC E2” value in [9] stood at 0.12 µg/mL (≈ 0.296 µM). The “MIC P9” value in data set [10] is less than 0.06 µg/mL. Also, in [11], the “RBC membrane lysis activity (active/inactive)” value is given as “Inactive^d”. Further, the “MIC S2” value in data set [12] is 0.5 µg/mL (≈ 1.23 µM). Moreover, the “MIC S4” value in data set [13] worked out at 0.5 µg/mL (≈ 1.23 µM). In data set [14], the “MIC S1” value came out at 0.25 µg/mL (≈ 0.616 µM). The “MIC P1” value in data set [15] was less than 0.06 µg/mL.

For the compound `CCCCCCCC(O)=C1C(=O)C(CCSC)N(C(=O)C2CCCCC2)C1=O` (stereo not drawn) [24e], the “MIC P9B” value in [1] worked out at 1 µg/mL (≈ 2.44 µM). In data set [16], the “SOL” value was greater than 300 µM. Besides, the “MIC H4” value in data set [2] turned out to be 2 µg/mL (≈ 4.88 µM). In addition, in data set [3], the “MIC H3” value came to 16 µg/mL (≈ 39.1 µM). In data set [4], the “Hek293 (LD50, μM)” value is greater than 90.9 µM. Besides, the IC50 in data set [5] is greater than 100 µM. In [6], the “MIC S26” value amounted to 1 µg/mL (≈ 2.44 µM). In addition, in [7], the “MIC E1” value was found to be 0.25 µg/mL (≈ 0.61 µM). Moreover, in data set [8], the “PMBC (LD50, μM)” value was greater than 90.9 µM. In addition, in data set [9], the “MIC E2” value came to 0.5 µg/mL (≈ 1.22 µM). Moreover, in data set [10], the “MIC P9” value is 0.12 µg/mL (≈ 0.293 µM). Also, the “RBC membrane lysis activity (active/inactive)” value in [11] was “Inactive^d”. Besides, the “MIC S2” value in data set [12] turned out to be 0.5 µg/mL (≈ 1.22 µM). In addition, the “MIC S4” value in [13] was found to be 2 µg/mL (≈ 4.88 µM). In data set [14], the “MIC S1” value was found to be 0.5 µg/mL (≈ 1.22 µM). Further, the “MIC P1” value in data set [15] stood at 0.12 µg/mL (≈ 0.293 µM).

Source of the values: US9765069B2, “Antimicrobial compounds” (OXFORD UNIVERSITY INNOVATION LIMITED, priority 2012, dated 2017).
